Experimental data: US9394284B2, “Compounds act at multiple prostaglandin receptors giving a general anti-inflammatory response” (Allergan, Inc., priority 2010, dated 2016)

What was measured:
[1] = test system: Dutch-belted pigmented rabbits; assay: Arachidonate induced uveitis, anterior chamber leukocyte infiltration; format: in vivo, rabbit; conditions: topical, concentrations of 0.1, 0.3 and 1%; sodium arachidonate challenge; FIG. 12
Procedure: Arachidonate Induced Uveitis
The rational for this protocol is to use arachidonate to directly produce ocular anterior segment uveitis, as opposed to using lipopolysaccharide (LPS) to indirectly release arachidonic acid.
Conscious male or female Dutch-belted pigmented rabbits weighing 2.5-3 kg were used for all in vivo slit lamp studies. Four animals were employed per test group. The right eye of each animal receiving 35 μl of topically administered test and the contralateral left eye of each animal receiving 35 μl of topically administered vehicle (t=0 minutes), followed 30 minutes later by treatment with 35 μl of 0.5% sodium arachidonate onto the surface of both eyes (t=30 minutes). Both eyes were examined by slit lamp 60 minutes following sodium arachdionate challenge (t=90 minutes) at 16× magnification under both white light and blue light illumination at an approximate angle of 45° through 1 mm and 5 mm slit widths.
Measurement of Anterior Chamber Leukocyte Infiltration:
Anterior chamber leukocyte infiltration was measured using a numerical scoring system to estimate cell number per field defined by a 5 mm slit width: 0=no cells per field (no response); 1=1-10 cells per field (mild); 2=11-20 cells per field (moderate); 3=[…] cells per field (severe); 4=>50 cells per filed (florid). Results are reported as the mean score value±S.E.M.

[2] = test system: allergic conjunctival itch; assay: Allergic conjunctival itch model; format: in vivo; conditions: FIGS. 10 and 11
Procedure: The compounds of this invention were tested according to the method described in “Characterization of Receptor Subtypes Involved in Prostanoid-Induced Conjunctival Pruritis and Their Role in Mediating Conjunctival Itching”, Vol. 279, No. 1, (JPET) 279, 137-142' 1996 for their efficacy in alleviating itch.

Strains TA 98 and TA 100 = assay: Ames Test for mutagenicity; format: cell-based
Procedure: The compounds of FIGS. 3 and 3(a) were tested for mutagenicity by means of the Ames Test using Strains TA 98 and TA 100. The results were negative for both compounds.

CCC(CC)COc1ccc(Cl)cc1Cn1nc(CCC(=O)O)cc1C [Example 3a, 3-{1-[5-Chloro-2-(2-ethyl-butoxy)-benzyl]-5-methyl-1H-pyrazol-3-yl}-propionic acid]
anterior chamber leukocyte infiltration (uveitis model) [1]: dose dependent response
number of itch-scratch episodes [2]: significantly lower number of itch-scratch episodes
mutagenicity (Ames Test) (Strains TA 98 and TA 100): negative
